Measured values as given in patent US8435986B2, “Bicyclic traizole derivatives for treating of tumors” (Merck Patent Gesellschaft mit beschrankter Haftung, priority 2008, dated 2013).
Structures can show the parent of a compound that is named as a salt.

Assays:
Met kinase [1] = biological target: T1, Met kinase (Homo sapiens, UniProt P08581); assay: Met kinase inhibition, cellular assay; type: cell-based; settings: read-out: Cellular assay IC50 (cell)
Target sequence in this assay (P08581 25-1390): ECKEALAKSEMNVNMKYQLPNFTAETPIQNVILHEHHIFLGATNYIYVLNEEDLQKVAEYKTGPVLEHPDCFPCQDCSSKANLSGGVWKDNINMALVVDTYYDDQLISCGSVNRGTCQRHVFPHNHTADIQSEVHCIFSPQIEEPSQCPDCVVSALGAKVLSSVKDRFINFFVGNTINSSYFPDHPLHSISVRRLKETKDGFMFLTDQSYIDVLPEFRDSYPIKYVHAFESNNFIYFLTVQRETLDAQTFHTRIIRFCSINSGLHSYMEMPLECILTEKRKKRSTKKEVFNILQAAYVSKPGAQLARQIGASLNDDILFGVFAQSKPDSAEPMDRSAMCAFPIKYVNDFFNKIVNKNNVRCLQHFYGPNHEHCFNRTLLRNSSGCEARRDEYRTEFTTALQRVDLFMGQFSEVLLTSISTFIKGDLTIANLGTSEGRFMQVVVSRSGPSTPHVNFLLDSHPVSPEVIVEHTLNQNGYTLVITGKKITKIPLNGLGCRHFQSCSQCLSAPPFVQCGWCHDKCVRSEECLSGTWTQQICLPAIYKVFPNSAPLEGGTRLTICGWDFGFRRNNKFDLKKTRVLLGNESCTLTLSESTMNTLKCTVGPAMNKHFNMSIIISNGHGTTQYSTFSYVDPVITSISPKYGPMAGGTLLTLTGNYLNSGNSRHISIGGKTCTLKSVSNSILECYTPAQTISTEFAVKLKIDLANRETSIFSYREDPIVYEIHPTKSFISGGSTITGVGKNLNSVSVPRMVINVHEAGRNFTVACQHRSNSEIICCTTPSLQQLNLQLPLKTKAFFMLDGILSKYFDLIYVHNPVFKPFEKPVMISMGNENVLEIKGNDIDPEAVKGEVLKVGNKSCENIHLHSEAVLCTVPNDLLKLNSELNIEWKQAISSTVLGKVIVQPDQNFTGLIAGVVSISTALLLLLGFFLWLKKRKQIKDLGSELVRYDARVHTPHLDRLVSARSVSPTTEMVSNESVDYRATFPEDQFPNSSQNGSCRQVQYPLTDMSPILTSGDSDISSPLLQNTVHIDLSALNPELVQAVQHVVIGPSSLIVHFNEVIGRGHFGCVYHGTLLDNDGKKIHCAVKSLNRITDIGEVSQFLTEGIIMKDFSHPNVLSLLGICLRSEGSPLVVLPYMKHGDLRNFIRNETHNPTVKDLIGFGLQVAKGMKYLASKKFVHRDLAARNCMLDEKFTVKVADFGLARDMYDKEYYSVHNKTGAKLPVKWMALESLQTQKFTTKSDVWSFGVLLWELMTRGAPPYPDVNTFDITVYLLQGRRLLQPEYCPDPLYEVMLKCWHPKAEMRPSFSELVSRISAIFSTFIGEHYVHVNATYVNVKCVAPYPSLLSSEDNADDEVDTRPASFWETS

Met kinase [2] = biological target: T1, Met kinase; assay: Met kinase inhibition, biochemical assay (flashplate method); design: 6His (N); purchased Upstate 14-526; host or cells: Sf21 insect cells (S. frugiperda), baculovirus; settings: read-out: Biochemical assay IC50 (enzyme)
Description: Measurement of Met Kinase Activity
According to the manufacturer's data (Met, active, Upstate, catalogue No. 14-526), Met kinase is expressed for the purposes of protein production in insect cells (Sf21; S. frugiperda) and subsequent affinity-chromatographic purification as “N-terminal 6His-tagged” recombinant human protein in a baculovirus expression vector.
Flashplate Method (Met Kinase)
The test plates used are 96-well Flashplate® microtitre plates from Perkin Elmer (Cat. No. SMP200). The components of the kinase reaction described below are pipetted into the assay plate. The Met kinase and the substrate poly Ala-Glu-Lys-Tyr, (pAGLT, 6:2:5:1), are incubated for 3 hrs at room temperature with radioactively labelled ^33P-ATP in the presence and absence of test substances in a total volume of 100 μl. The reaction is terminated using 150 μl of a 60 mM EDTA solution. After incubation for a further 30 min at room temperature, the supernatants are filtered off with suction, and the wells are washed three times with 200 μl of 0.9% NaCl solution each time. The measurement of the bound radioactivity is carried out by means of a scintillation measuring instrument (Topcount NXT, Perkin-Elmer).
The full value used is the inhibitor-free kinase reaction. This should be approximately in the range 6000-9000 cpm. The pharmacological zero value used is staurosporin in a final concentration of 0.1 mM. The inhibitory values (IC50) are determined using the RS1_MTS program.
Kinase reaction conditions per well:
10 μl of substance to be tested in assay buffer with 10% of DMSO
10 μl of ATP (final concentration 1 μM cold, 0.35 μCi of ^33P-ATP)
50 μl of Met kinase/substrate mixture in assay buffer; • (10 ng of enzyme/well, 50 ng of pAGLT/well) • Solutions used: • Assay buffer: • 50 mM HEPES • 3 mM magnesium chloride • 3 μM sodium orthovanadate • 3 mM manganese(II) chloride • 1 mM dithiothreitol (DTT) • pH=7.5 (to be set using sodium hydroxide) • Stop solution: • 60 mM Titriplex III (EDTA) • ^33P-ATP: Perkin-Elmer; • Met kinase: Upstate, Cat. No. 14-526, Stock 1 μg/10 μl; spec. activity 954 U/mg; • Poly-Ala-Glu-Lys-Tyr, 6:2:5:1: Sigma Cat. No. P1152 In-Vivo Tests
Target sequence in this assay (P08581 974-1390 limits assumed): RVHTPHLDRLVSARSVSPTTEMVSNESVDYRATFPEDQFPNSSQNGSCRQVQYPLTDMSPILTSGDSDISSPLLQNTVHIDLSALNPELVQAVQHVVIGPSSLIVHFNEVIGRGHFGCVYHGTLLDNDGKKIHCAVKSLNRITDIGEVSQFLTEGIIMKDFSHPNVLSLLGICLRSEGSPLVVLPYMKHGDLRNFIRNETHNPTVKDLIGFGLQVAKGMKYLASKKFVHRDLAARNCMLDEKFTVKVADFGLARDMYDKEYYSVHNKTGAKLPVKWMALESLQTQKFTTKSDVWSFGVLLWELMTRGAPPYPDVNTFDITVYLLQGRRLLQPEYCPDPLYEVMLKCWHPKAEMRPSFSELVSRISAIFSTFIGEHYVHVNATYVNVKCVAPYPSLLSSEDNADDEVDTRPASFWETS

| IC50 (Met kinase [1]) | IC50 (Met kinase [2]) | SMILES |
| --- | --- | --- |
| 1 to 100 nM | 1 to 100 nM | CN(C)CCOc1cnc(-c2cccc(Cn3nnc4ncc(-c5cnn(C)c5)nc43)c2)nc1 [Compound B14, dimethyl-[2(2-{3-[6-(1-methyl-1H-pyrazol-4-yl)-1,2,3-triazolo[4,5-b]pyrazin-1-ylmethyl]phenyl}pyrimidin-5-yloxy)ethyl]amine hydrochloride] |
| 1 to 100 nM | 1 to 100 nM | COCCn1cc(-c2cnc3nnn(Cc4cccc(-c5ncc(OCCN6CCOCC6)cn5)c4)c3n2)cn1 [Compound B33] |
| 100 to 10000 nM | 1 to 100 nM | Clc1ccc2nnn(Cc3cccc(-c4ncc(OCCN5CCOCC5)cn4)c3)c2n1 [Compound A48, 5-chloro-3-{3-[5-(2-morpholin-4-ylethoxy)pyrimidin-2-yl]-benzyl}-3H-1,2,3-triazolo[4,5-b]pyridine] |
| 1 to 100 nM | 1 to 100 nM | N#Cc1cccc(-c2cnc3nnn(Cc4cccc(-c5ncc(OCCN6CCNCC6)cn5)c4)c3n2)c1 [Compound B22] |
| 1 to 100 nM | 1 to 100 nM | Cn1cc(-c2cnc3nnn(Cc4cccc(-c5ncc(OCC6CCNCC6)cn5)c4)c3n2)cn1 [Compound A9] |
| 100 to 10000 nM | 1 to 100 nM | Brc1cnc(-c2cccc(Cn3nnc4ncc(Br)nc43)c2)nc1 [Compound B1, 6-bromo-1-[3-(5-bromopyrimidin-2-yl)benzyl]-1H-1,2,3-triazolo[4,5-b]pyrazine] |
| 1 to 100 nM | 1 to 100 nM | OCCn1cc(-c2cnc3nnn(Cc4cccc(-c5ncc(OCCN6CCOCC6)cn5)c4)c3n2)cn1 [Compound B34] |
| 1 to 100 nM | 1 to 100 nM | N#Cc1cccc(Oc2cnc3nnn(Cc4cccc(-c5ncc(Br)cn5)c4)c3n2)c1 [Compound B6, 3-{3-[3-(5-bromopyrimidin-2-yl)benzyl]-3H-1,2,3-triazolo[4,5-b]pyrazin-5-yloxy}benzonitrile] |
| 100 to 10000 nM | 1 to 100 nM | O=[N+]([O-])c1ccc(Br)cc1NCc1cccc(-c2ncc(OCCN3CCOCC3)cn2)c1 [Compound B36, (5-bromo-2-nitrophenyl)-{3-[5-(2-morpholin-4-ylethoxy)-pyrimidin-2-yl]benzyl}amine] |
| 1 to 100 nM | 1 to 100 nM | CN1CCN(CCOc2cnc(-c3cccc(Cn4nnc5ncc(-c6cnn(C)c6)nc54)c3)nc2)CC1=O [Compound B19] |
| 1 to 100 nM | 1 to 100 nM | Cn1cc(-c2cnc3nnn(Cc4cccc(-c5ncc(OCCN6CCOCC6)cn5)c4)c3n2)cn1 [Compound A2, 6-(1-methyl-1H-pyrazol-4-yl)-1-{3-[5-(2-morpholin-4-ylethoxy)-pyrimidin-2-yl]benzyl}-1H-1,2,3-triazolo[4,5-b]pyrazine] |
| 100 to 10000 nM | 1 to 100 nM | c1cc(Cn2nnc3ccccc32)cc(-c2ncc(OCCN3CCOCC3)cn2)c1 [Compound A3, 1-{3-[5-(2-morpholin-4-ylethoxy)pyrimidin-2-yl]benzyl}-1H-benzotriazole] |
| 1 to 100 nM | 1 to 100 nM | Fc1cc(F)cc(-c2cnc3nnn(Cc4cccc(-c5ncc(OCCN6CCNCC6)cn5)c4)c3n2)c1 [Compound B23] |
| 1 to 100 nM | – | Brc1cnc2nnn(Cc3cccc(-c4ncc(OCCN5CCOCC5)cn4)c3)c2n1 [Compound A1, 6-bromo-1-{3-[5-(2-morpholin-4-ylethoxy)pyrimidin-2-yl]benzyl}-1H-1,2,3-triazolo[4,5-b]-pyrazine] |
| 1 to 100 nM | 1 to 100 nM | Oc1cnc(-c2cccc(Cn3nnc4ncc(-c5cc(F)cc(F)c5)nc43)c2)nc1 [Compound B10, 2-{3-[6-(3,5-difluorophenyl)-1,2,3-triazolo[4,5-b]pyrazin-1-ylmethyl]phenyl}-pyrimidin-5-ol] |
| 1 to 100 nM | 1 to 100 nM | CN1CCN(CCOc2cnc(-c3cccc(Cn4nnc5ncc(-c6cnn(C)c6)nc54)c3)nc2)CC1 [Compound B17] |

| IC50 (Met kinase [1]) | IC50 (Met kinase [2]) | SMILES |
| --- | --- | --- |
| 1 to 100 nM | 1 to 100 nM | Fc1cc(F)cc(-c2cnc3nnn(Cc4cccc(-c5ncc(OCC6CCNCC6)cn5)c4)c3n2)c1 [Compound B24] |
| 1 to 100 nM | 1 to 100 nM | Cn1cc(-c2cnc3nnn(Cc4cccc(-c5ncc(OCCCO)cn5)c4)c3n2)cn1 [Compound B15] |
| 1 to 100 nM | 1 to 100 nM | Cn1cc(Oc2cnc3nnn(Cc4cccc(-c5ncc(Br)cn5)c4)c3n2)cn1 [Compound B5, 1-[3-(5-bromopyrimidin-2-yl)benzyl]-6-(1-methyl-1H-pyrazol-4-yloxy)-1H-1,2,3-triazolo[4,5-b]pyrazine] |
| > 10000 nM | 100 to 10000 nM | Clc1ccc2c(c1)nnn2Cc1cccc(-c2ncc(OCCN3CCOCC3)cn2)c1 [Compound B35, 5-Chloro-1-{3-[5-(2-morpholin-4-ylethoxy)pyrimidin-2-yl]benzyl}-1H-benzotriazole] |
| 1 to 100 nM | 1 to 100 nM | Fc1ccc2nnn(Cc3cccc(-c4ncc(OCCN5CCOCC5)cn4)c3)c2c1F [Compound A46] |
| 1 to 100 nM | 1 to 100 nM | Cn1cc(-c2cnc3nnn(Cc4cccc(-c5ncc(-c6cnn(CCN7CCCC7)c6)cn5)c4)c3n2)cn1 [Compound A24, 6-(1-methyl-1H-pyrazol-4-yl)-1-(3-{5-[1-(2-pyrrolidin-1-yl-ethyl)-1H-pyrazol-4-yl]pyrimidin-2-yl}benzyl)-1H-1,2,3-triazolo[4,5-b]-pyrazine hydrochloride] |
| 1 to 100 nM | 1 to 100 nM | Cn1cc(-c2cnc3nnn(Cc4cccc(-c5ncc(OC6CCNCC6)cn5)c4)c3n2)cn1 [Compound A6] |
| 1 to 100 nM | 1 to 100 nM | N#Cc1cccc(-c2cnc3nnn(Cc4cccc(-c5ncc(-c6cnn(CCN7CCCC7)c6)cn5)c4)c3n2)c1 [Compound B21] |
| 1 to 100 nM | 1 to 100 nM | Cn1cc(-c2cnc3nnn(Cc4cccc(-c5ncc(OCC6CNCCO6)cn5)c4)c3n2)cn1 (stereo not shown) [Compound B20] |
| 1 to 100 nM | 1 to 100 nM | COCCOc1cnc(-c2cccc(Cn3nnc4ncc(-c5cnn(C)c5)nc43)c2)nc1 [Compound B16] |
| 1 to 100 nM | 1 to 100 nM | N#Cc1cccc(-c2cnc3nnn(Cc4cccc(-c5ncc(OC6CCNCC6)cn5)c4)c3n2)c1 [Compound A27] |
| 1 to 100 nM | 1 to 100 nM | N#Cc1cccc(-c2cnc3nnn(Cc4cccc(-c5ncc(OCC6CCNCC6)cn5)c4)c3n2)c1 [Compound A30] |
| 1 to 100 nM | 1 to 100 nM | Cn1cc(-c2cnc3nnn(Cc4cccc(-c5ncc(OCCCN6CCOCC6)cn5)c4)c3n2)cn1 [Compound B18] |
| 1 to 100 nM | 1 to 100 nM | COc1ccc2nnn(Cc3cccc(-c4ncc(OCCCN(C)C)cn4)c3)c2n1 [Compound B37] |
| 1 to 100 nM | 1 to 100 nM | Fc1cc(F)cc(Oc2cnc3nnn(Cc4cccc(-c5ncc(Br)cn5)c4)c3n2)c1 [Compound B7, 1-[3-(5-bromopyrimidin-2-yl)benzyl]-6-(3,5-difluorophenoxy)-1H-1,2,3-triazolo[4,5-b]pyrazine] |
